In patent EP4467141A1, “PYRAZOLO-QUINOLINES AS SELECTIVE INHIBITORS OF GENOTOXIC STRESS-INDUCED IKK/NF- KB PATHWAYS FOR CANCER THERAPY” (Max-Delbrück-Centrum für Molekulare Medizin in der …, priority 2023, dated 2024) one finds inhibition data, which are given here for two compounds.

SMILES strings stand for the structures.

Common to all, as to test: Kinase panel study
Common to all, as to type: biochemical
What all share (settings): read-out: Percentage of inhibition; for inhibition at 1 µM: 1000nM; for inhibition at 10 µM: 10000nM

For one experiment, the target named is T1, PEAK1 (Homo sapiens, UniProt Q9H792).
T1 construct: purchased Thermo Fisher Scientific
An outline of the steps:
(§1)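 Inhibition was measured in an outsourced in vitro kinase panel using the ZLyte or Adapta format under the provider's standard procedures. Values are percent inhibition at 10 µM or 1 µM compound, and IC50s were also obtained.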

For the next experiment, the target named is T2, CDK2/cyclin A (Homo sapiens, UniProt P24941).
T2 construct: purchased Thermo Fisher Scientific
An outline of the steps: as §1

A further experiment concerns the target T3, PRKCB1 (PKC beta I) (Homo sapiens, UniProt P05771).
T3 construct: purchased Thermo Fisher Scientific
An outline of the steps:
as §1

The target in another experiment is T4, EPHA1 (Homo sapiens, UniProt P21709).
T4 construct: purchased Thermo Fisher Scientific
T4 sequence (P21709 26-976): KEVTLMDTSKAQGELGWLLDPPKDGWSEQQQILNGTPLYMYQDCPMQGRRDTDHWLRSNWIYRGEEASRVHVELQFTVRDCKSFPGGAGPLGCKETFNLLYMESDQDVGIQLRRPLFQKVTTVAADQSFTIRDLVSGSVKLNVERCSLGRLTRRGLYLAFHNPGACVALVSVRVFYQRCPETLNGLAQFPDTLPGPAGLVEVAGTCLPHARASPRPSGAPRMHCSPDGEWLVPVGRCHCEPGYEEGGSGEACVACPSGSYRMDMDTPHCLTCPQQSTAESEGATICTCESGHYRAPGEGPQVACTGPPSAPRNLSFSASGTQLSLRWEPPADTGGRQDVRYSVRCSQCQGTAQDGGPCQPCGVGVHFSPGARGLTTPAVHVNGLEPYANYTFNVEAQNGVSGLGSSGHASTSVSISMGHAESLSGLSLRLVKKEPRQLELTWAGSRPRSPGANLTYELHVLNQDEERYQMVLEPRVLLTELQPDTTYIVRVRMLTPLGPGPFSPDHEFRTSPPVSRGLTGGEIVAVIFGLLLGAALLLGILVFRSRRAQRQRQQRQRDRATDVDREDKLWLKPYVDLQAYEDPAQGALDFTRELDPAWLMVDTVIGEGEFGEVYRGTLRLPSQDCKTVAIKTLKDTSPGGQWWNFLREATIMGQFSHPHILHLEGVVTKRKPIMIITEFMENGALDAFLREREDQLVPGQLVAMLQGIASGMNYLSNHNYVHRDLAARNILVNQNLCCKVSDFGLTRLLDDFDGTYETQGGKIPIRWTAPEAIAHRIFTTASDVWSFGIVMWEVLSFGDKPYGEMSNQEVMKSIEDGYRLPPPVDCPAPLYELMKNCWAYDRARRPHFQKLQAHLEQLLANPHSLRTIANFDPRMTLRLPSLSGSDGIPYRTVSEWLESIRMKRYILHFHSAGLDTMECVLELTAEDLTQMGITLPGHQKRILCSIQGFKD
The procedure, abridged:
as §1

In another experiment the target is T5, LCK (Homo sapiens, UniProt P06239).
T5 construct: purchased Thermo Fisher Scientific
An outline of the steps:
as §1

In the next experiment the target is T6, PRKACA (PKA) (Homo sapiens, UniProt P17612).
T6 construct: purchased Thermo Fisher Scientific
An outline of the steps:
as §1

The target in the next experiment is T7, TBK1 (Homo sapiens, UniProt Q9UHD2).
T7 construct: purchased Thermo Fisher Scientific
T7 sequence (Q9UHD2 1-729): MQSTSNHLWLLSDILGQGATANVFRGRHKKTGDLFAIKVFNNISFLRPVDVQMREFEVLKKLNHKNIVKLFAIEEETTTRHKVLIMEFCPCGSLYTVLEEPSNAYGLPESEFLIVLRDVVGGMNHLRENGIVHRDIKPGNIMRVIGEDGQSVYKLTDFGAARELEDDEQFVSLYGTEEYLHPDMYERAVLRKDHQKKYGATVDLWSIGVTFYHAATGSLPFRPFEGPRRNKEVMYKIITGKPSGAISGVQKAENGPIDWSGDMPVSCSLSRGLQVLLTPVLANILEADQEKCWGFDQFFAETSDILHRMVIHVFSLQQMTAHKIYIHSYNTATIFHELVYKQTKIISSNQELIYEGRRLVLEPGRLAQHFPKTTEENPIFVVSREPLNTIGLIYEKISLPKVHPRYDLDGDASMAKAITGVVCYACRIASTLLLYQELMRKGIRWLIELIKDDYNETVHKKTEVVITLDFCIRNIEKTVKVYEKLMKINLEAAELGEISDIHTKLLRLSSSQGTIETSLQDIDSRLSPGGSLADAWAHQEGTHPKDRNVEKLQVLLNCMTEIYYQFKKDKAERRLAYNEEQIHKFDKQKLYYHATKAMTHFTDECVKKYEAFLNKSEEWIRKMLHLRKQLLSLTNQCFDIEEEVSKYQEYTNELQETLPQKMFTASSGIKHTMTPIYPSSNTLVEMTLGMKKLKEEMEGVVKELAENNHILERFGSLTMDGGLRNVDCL
An outline of the steps: as §1

T5 sequence (P06239 whole entry): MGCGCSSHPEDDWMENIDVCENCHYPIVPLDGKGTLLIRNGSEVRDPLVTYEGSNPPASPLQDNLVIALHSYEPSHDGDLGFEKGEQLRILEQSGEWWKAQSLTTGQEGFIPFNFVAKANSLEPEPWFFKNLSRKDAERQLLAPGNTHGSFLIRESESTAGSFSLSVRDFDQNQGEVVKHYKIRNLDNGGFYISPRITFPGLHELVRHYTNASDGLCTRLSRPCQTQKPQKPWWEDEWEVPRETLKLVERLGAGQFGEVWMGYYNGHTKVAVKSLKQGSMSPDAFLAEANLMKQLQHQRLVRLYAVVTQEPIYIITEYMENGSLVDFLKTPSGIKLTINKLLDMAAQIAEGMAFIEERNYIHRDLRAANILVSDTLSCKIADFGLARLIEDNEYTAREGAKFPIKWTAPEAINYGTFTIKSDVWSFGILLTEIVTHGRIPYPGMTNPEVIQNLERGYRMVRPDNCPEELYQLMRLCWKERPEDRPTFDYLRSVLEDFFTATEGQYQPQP
T3 sequence (P05771 whole entry): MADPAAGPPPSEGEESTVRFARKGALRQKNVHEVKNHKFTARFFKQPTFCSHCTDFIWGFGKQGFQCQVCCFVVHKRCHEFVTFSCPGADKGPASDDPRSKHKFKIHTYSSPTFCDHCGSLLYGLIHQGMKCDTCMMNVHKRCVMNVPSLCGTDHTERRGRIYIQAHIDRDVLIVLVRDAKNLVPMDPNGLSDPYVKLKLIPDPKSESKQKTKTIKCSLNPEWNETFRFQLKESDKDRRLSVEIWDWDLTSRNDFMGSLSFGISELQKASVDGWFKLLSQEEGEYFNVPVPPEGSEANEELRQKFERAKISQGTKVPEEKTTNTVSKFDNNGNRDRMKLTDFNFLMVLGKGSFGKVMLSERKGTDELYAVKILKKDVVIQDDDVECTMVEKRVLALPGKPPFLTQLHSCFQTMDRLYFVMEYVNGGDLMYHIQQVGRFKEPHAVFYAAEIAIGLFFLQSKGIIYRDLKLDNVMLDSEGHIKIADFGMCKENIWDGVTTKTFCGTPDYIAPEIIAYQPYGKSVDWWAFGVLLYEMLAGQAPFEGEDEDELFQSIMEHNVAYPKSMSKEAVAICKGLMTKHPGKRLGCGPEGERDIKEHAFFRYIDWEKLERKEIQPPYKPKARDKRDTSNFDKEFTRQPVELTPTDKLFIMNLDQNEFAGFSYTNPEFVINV
T1 sequence (Q9H792 whole entry): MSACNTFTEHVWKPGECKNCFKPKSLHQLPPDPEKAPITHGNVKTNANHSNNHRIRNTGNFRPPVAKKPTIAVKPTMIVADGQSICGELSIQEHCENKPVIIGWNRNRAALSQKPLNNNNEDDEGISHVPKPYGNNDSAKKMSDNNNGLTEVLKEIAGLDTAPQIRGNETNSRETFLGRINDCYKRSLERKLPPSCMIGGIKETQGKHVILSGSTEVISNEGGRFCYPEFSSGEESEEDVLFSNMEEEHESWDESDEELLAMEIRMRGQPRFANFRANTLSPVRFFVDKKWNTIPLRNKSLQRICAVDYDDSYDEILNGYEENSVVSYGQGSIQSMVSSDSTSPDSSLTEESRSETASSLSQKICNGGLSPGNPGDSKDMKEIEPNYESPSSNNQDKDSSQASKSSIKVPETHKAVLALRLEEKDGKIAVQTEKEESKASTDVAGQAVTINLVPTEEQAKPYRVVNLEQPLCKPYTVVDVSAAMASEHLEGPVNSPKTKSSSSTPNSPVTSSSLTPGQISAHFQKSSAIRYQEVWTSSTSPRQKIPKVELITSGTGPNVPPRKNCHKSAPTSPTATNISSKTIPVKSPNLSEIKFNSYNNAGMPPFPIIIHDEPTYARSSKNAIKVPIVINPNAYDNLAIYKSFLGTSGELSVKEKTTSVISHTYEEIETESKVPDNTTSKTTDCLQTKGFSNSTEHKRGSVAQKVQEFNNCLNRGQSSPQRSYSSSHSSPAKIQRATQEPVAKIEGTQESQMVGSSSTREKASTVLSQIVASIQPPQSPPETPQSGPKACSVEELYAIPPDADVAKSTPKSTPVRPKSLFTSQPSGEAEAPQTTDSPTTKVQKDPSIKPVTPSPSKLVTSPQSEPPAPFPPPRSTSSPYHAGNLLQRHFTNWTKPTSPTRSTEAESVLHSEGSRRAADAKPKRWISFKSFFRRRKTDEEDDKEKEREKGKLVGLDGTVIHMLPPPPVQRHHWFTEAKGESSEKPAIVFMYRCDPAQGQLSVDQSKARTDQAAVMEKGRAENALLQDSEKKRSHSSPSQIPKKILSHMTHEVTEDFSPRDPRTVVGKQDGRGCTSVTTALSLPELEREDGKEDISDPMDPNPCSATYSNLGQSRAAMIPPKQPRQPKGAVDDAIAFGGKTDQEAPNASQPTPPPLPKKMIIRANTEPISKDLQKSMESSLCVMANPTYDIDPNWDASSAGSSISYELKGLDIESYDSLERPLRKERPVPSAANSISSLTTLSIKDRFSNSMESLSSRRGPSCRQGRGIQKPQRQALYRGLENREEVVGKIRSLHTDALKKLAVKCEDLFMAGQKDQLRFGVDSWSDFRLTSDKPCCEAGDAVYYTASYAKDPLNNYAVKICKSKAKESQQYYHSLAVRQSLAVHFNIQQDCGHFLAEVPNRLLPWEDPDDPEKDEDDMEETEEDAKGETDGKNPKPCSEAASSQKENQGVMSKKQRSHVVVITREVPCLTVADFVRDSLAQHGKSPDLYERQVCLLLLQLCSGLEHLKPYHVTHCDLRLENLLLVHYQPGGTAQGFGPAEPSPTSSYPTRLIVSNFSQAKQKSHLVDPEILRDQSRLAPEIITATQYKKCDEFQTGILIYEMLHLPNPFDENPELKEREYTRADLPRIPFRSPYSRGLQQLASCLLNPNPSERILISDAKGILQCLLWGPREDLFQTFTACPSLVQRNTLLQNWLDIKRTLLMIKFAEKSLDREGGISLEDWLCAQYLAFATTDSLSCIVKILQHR

Regarding `COc1ccc2c(c1OC)c(=O)n1c3ccc(O)cc3c3ccnc2c31` [MW01, 5-Hydroxy-10,11-dimethoxy-9H-benzo[c]indolo[3,2,1-ij][1,5]naphthyridin-9-one], the inhibition at 1 µM is -1% on PEAK1; 14% on CDK2/cyclin A; 1% at PRKCB1 (PKC beta I); 9% on EPHA1; 12% on LCK; 6% at PRKACA (PKA). The inhibition at 1 µM on TBK1 stood at 8%. Moreover, the inhibition at 10 µM at PEAK1 was 16%; at CDK2/cyclin A, 37%; at PRKCB1 (PKC beta I), -17%; at EPHA1, 16%; at LCK, 37%; at PRKACA (PKA), 17%. In addition, the inhibition at 10 µM at TBK1 was 17%.

For `COc1ccc2cc3c(N)nn(C(=O)c4cccc(N(C)C)c4)c3nc2c1` [MW05, (3-Amino-7-methoxypyrazolo[3,4-b]quinolin-1-yl)-[3-(dimethylamino)phenyl]methanone], the inhibition at 1 µM at PEAK1 came out at 2%; on CDK2/cyclin A, 12%; on PRKCB1 (PKC beta I), 5%; on EPHA1, 11%; on LCK, 8%; on PRKACA (PKA) it was 12%. The inhibition at 1 µM on TBK1 was determined as 11%. For the same compound, the inhibition at 10 µM on PEAK1 is 0%; on CDK2/cyclin A it was 25%; on PRKCB1 (PKC beta I) it was -7%; at EPHA1 it was -5%; on LCK, 5%; at PRKACA (PKA) it was -15%. Also, the inhibition at 10 µM at TBK1 was -8%.

As usually defined, the inhibition is the change of the read-out against control, counted positive when it falls.
